One test relates to MKN45 cells. Briefly: MKN45 cell proliferation assay (CellTiter-Glo). The note with it: Homo sapiens, MKN-45, 72 h; MKN45 cell line; 3 days incubation; at least duplicate experiments; read-out: Prolif. IC50. The test is classed as cell-based. (In ATP-based viability assays light output follows the ATP content of the culture.)
The target in another test is T1, Aurora B (Homo sapiens, UniProt Q96GD4).
T1 construct: HT-29 cells grown in complete growth media
Briefly: Aurora B cell mechanistic assay (HT-29), phospho-Histone H3 (Ser10) ELISA. The test is classed as cell-based. The note with it: HT-29 cell line; inhibition of phospho-Histone H3 (Ser10); at least duplicate experiments (italicized if single experiment); read-out: Aurora B mech IC50. The gist of the method: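 HT-29 cells treated 1 h at 37 °C with serially diluted compound, then 100 nM Calyculin A added for 30 min. Lysates assayed by phospho-Histone H3 (Ser10) ELISA at 450 nm; normalized to DMSO (100%) and a reference Aurora B inhibitor (full inhibition); IC50 by four-parameter fit.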

The structures appear in SMILES notation.

T1 sequence (Q96GD4 whole entry): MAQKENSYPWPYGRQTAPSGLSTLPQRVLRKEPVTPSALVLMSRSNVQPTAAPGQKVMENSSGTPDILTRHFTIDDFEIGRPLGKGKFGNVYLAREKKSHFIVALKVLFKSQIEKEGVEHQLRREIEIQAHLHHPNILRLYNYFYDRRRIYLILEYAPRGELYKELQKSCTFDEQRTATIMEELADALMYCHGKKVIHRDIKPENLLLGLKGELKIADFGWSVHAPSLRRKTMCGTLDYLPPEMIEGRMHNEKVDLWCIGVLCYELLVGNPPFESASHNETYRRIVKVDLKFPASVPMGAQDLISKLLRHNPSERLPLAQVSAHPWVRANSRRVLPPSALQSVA

Regarding `COc1ccc(F)c(Cl)c1[C@@H](C)c1c[nH]c2ncc(-c3cn([C@H]4CC[C@H](C(=O)N(C)C)CC4)nc3C)cc12` [Example 23, trans-4-(4-{3-[(1S)-1-(2-chloro-3-fluoro-6-methoxyphenyl)ethyl]-1H-pyrrolo[2,3-b]pyridin-5-yl}-3-methyl-1H-pyrazol-1-yl)-N,N-dimethylcyclohexanecarboxamide], the IC50 – broadly, the concentration needed to halve the response being measured – with MKN45 cells was not above 50 nM; on Aurora B, 50 to 200 nM.
In the same order, the values of `CNC(=O)[C@H]1CC[C@H](n2nc(C)c(-c3cnc4[nH]cc([C@H](C)c5c(OC)ccc(F)c5Cl)c4c3)c2C)CC1` [Example 24, trans-4-(4-{3-[(1S)-1-(2-Chloro-3-fluoro-6-methoxyphenyl)ethyl]-1H-pyrrolo[2,3-b]pyridin-5-yl}-3,5-dimethyl-1H-pyrazol-1-yl)-N-methylcyclohexanecarboxamide] are not above 50 nM and more than 1000 nM.
In the same order, the values of `COc1ccc(F)c(Cl)c1[C@@H](C)c1c[nH]c2ncc(-c3cn([C@H]4CC[C@H](O)CC4)nc3C)cc12` [Example 28, trans-4-(4-{3-[(1S)-1-(2-Chloro-3-fluoro-6-methoxyphenyl)ethyl]-1H-pyrrolo[2,3-b]pyridin-5-yl}-3-methyl-1H-pyrazol-1-yl)cyclohexanol] are not above 50 nM and 50 to 200 nM.

For the origin of these results see patent US8445510B2, “Fused bicyclic kinase inhibitors” (OSI Pharmaceuticals, LLC, priority 2011, dated 2013).
